Legend:
[1] = system: α-acid glycoprotein (AAG); assay: Binding constant (Ka) of the drug to alpha-acid glycoprotein; parameters: species or system human
[2] = system: normal human serum proteins; details: 5 min, 1 μM
Procedure: To one part of serum sample two parts of MeOH were added, mixed and centrifuged at 16,100 g for 30 min. The supernatant was recovered and can be stored for at least 2 weeks at −20° C. prior to assay. 60 μl is used for the cuvette assay or 24 μl is used for the plate reader assay. Six serial dilutions 1:2 to 1:120 of the extracts, obtained from analyte samples were prepared prior to assay. Methanol extract of normal dog serum without inhibitor was used for the dilution.
For the plate reader assay, the following conditions were used: The buffer was prepared of 50 mM Sodium acetate (NaOAc), pH 4.5, 2 mM dithiothreitol (DTT), 20 mM Sodium Chloride (NaCl), 0.01% Tween 20. The substrate was present at a final concentration of 20 μM in the above buffer. The substrate used is based on a natural substrate for HIV protease. It contains a portion (P4-P4′) of the p17-p24 gag protein. […] The enzyme, wild type HIV-1 protease, was present in the above buffer (50 mM NaOAc, pH4.5, 2 mM DTT, 200 mM NaCl), 0.01% Tween 20) at a final concentration of 4-5 nM. It should be appreciated that other forms of HIV protease can be used as well, including mutant forms of the protease.
The assay is performed at room temperature (RT). […] The reaction was started by adding 88 μl buffer containing substrate and the increase of fluorescence was monitored over time (FIG. 2). […]

plasma protein = details: cited from earlier work

Row | Ka for AAG binding [1] | Free/total drug ratio (%), percentage of HIV protease inhibitor in sample not bound to proteins [2] | SMILES | plasma protein bound (plasma protein)
1 | No binding |  | CC(C)(C)NC(=O)[C@@H]1CN(Cc2cccnc2)CCN1C[C@@H](O)C[C@@H](Cc1ccccc1)C(=O)N[C@H]1c2ccccc2C[C@H]1O [IDV, indinavir] | 
2 | 2.3 10^6 M^−1 | 10.5% | CC(C)CN(C[C@@H](O)[C@H](Cc1ccccc1)NC(=O)[C@H](CC(N)=O)NC(=O)c1ccc2ccccc2n1)C(=O)NC(C)(C)C [SC-52151] | 
3 |  |  | CC(C)(C)NC(=O)[C@@H]1C[C@@H]2CCCC[C@@H]2CN1C[C@@H](O)[C@H](Cc1ccccc1)NC(=O)[C@H](CC(N)=O)NC(=O)c1ccc2ccccc2n1 [saquinavir] | 90-99%

— patent US7320878B2, “Protease assay for therapeutic drug monitoring” (Tibotec Pharmaceuticals, Ltd., priority 2001, dated 2008)
